Results: PMC10699557, “A recombinant approach for stapled peptide discovery yields inhibitors of the RAD51 recombinase” (Chemical Science, 2023)
Numbered stars: 1 amine (or outer) side, 2 acyl side, 3 side chain; on linkers, the order of the positions; unused ones are H or OH. Bridge positions count the residues as written; N and C are the ends. Peptide text beside a SMILES is read from it. X1 = Nc1nc(CC[*:1])cc(CC[*:2])n1

Tests used:
[1] = system: RAD51:dT60 nucleoprotein filament (full-length human RAD51); test: Electrophoretic mobility shift assay (EMSA) of nucleoprotein filament disruption; format: biochemical; details: 5 μM full-length human RAD51, 100 nM FAM-dT60, varying peptide concentrations; 50 mM HEPES pH 7.4, 1 mM ATP
Protocol: We evaluated the effect of stapled peptides SP2, SP24 and SP30 on the nucleoprotein filament using electrophoretic mobility shift assay (EMSA, Fig. 3D). A fluorescently labelled dT60 oligonucleotide was incubated with full-length RAD51, after which the peptides were added at different concentrations before separating the products on a polyacrylamide gel.
(§1) Isothermal titration calorimetry
(§2) Peptides were resuspended in MilliQ water to 10 times the desired final concentration.
This was then diluted 10x with the ITC buffer to obtain the final titrant solution (20 mM CHES pH 9.5, 150 mM NaCl, 0.1% Tween-20). HumRadA22 was buffer-exchanged on a NAP-5 desalting column (Cytiva) into ITC buffer and protein concentration was adjusted to 10:9 of the desired final value. One ninth volume of MilliQ water was added to the solution to bring the protein concentration to the desired final value, while maintaining identical buffer:MilliQ volume proportions in both the syringe and the cell. ITC was carried out using a Microcal ITC200 or Malvern PEAQ ITC instruments at 25°C with a 5.00 μCal reference power DP value, stirring speed of 500-750 rpm, 2 sec filter period. Injection spacing, speed and volume, cell/syringe concentrations as well as the number of injections were adjusted for each peptide and its binding properties. ITC data were fitted using a single-site binding model using the Microcal ITC data analysis program in the Origin 7.0 package. Data points affected by baseline spikes were omitted from the analysis.
Circular dichroism spectroscopy
(§3) Dried peptides were dissolved in MilliQ water to 0.3 mg/ml, and then two-fold diluted in 20 mM sodium phosphate, pH 7.4, giving a final solution of 0.15 mg/ml peptide in 10 mM sodium phosphate. CD spectra of selected peptides were recorded on an AVIV 410 circular dichroism spectropolarimeter using a 1 mm path length quartz cuvette. […]
(§4) The ability of linear and stapled BRC repeat peptides to dissociate RAD51-ssDNA nucleofilament was evaluated using an electrophoretic mobility shift assay (EMSA). […]

HumRadA22 = HumRadA22 (Pyrococcus furiosus, UniProt O74036); test: Isothermal titration calorimetry (ITC) of peptide binding; parameters: species or system archaeal RadA mutant with human Rad51 surface residues; details: Fig. S3; stapled Arg9-fused peptide
Protocol: We then evaluated the binding of free peptides to HumRadA22 using FP competition assay and isothermal titration calorimetry (Table 1 and Fig. 3B and C). […] All three peptides SP2, SP24 and SP30 bound with similar low-nanomolar affinities in ITC, and the binding appears to be slightly weaker relative to the linear BRC8-2 template (Fig. 3C).
as §1, §2
This was then diluted 10x with the ITC buffer to obtain the final titrant solution (20 mM CHES pH 9.5, 150 mM NaCl, 0.1% Tween-20). HumRadA22 was buffer-exchanged on a NAP-5 desalting column (Cytiva) into ITC buffer and protein concentration was adjusted to 10:9 of the desired final value. […]
as §3, §4

`CC(C)C[C@@H]1NC(=O)[C@H](CCCCN)NC(=O)[C@H](CCCCN)NC(=O)CNC(=O)[C@H](CO)NC(=O)[C@H](C)NC(=O)[C@H]([C@@H](C)O)NC(=O)[C@H](CO)NC(=O)[C@H](Cc2ccccc2)NC(=O)CNC(=O)[C@H](CO)NC(=O)[C@@H](NC(=O)CN)CSCCc2cc(nc(N)n2)CCSC[C@@H](C(=O)N[C@@H](CCC(N)=O)C(=O)N[C@@H](CCCCN)C(=O)N[C@@H](C)C(=O)N[C@H](C(=O)N[C@@H](CCCCN)C(=O)N[C@@H](CC(C)C)C(=O)N[C@@H](Cc2ccccc2)C(=O)N[C@@H](CO)C(=O)NCC(=O)O)C(C)C)NC(=O)[C@H](C)NC(=O)[C@H](CCC(N)=O)NC(=O)[C@H]([C@@H](C)O)NC(=O)[C@H](CO)NC(=O)[C@H](C(C)C)NC(=O)[C@H](CC(N)=O)NC1=O` [SP30] (H-GCSGFSTASGKKLNVSTQACQKAVKLFSG-OH; linker 2-20 via X1) was tested. Which “Depolymerisation of RAD51 from single-stranded DNA (EMSA)” value [1] did it give?
The value was “depolymerise RAD51 from single-stranded DNA to similar extent”.

`CC(C)C[C@@H]1NC(=O)[C@H](CCCCN)NC(=O)[C@H](CCCCN)NC(=O)CNC(=O)[C@H](CO)NC(=O)[C@H](C)NC(=O)[C@H]([C@@H](C)O)NC(=O)[C@H](CO)NC(=O)[C@H](Cc2ccccc2)NC(=O)CNC(=O)[C@H](CO)NC(=O)[C@@H](NC(=O)CNC(=O)CNC(=O)[C@H](CCCNC(=N)N)NC(=O)[C@H](CCCNC(=N)N)NC(=O)[C@H](CCCNC(=N)N)NC(=O)[C@H](CCCNC(=N)N)NC(=O)[C@H](CCCNC(=N)N)NC(=O)[C@H](CCCNC(=N)N)NC(=O)[C@H](CCCNC(=N)N)NC(=O)[C@H](CCCNC(=N)N)NC(=O)[C@H](CCCNC(=N)N)NC(=O)CN)CSCCc2cc(nc(N)n2)CCSC[C@@H](C(=O)N[C@@H](CCC(N)=O)C(=O)N[C@@H](CCCCN)C(=O)N[C@@H](C)C(=O)N[C@H](C(=O)N[C@@H](CCCCN)C(=O)N[C@@H](CC(C)C)C(=O)N[C@@H](Cc2ccccc2)C(=O)N[C@@H](CO)C(=O)NCC(=O)O)C(C)C)NC(=O)[C@H](C)NC(=O)[C@H](CCC(N)=O)NC(=O)[C@H]([C@@H](C)O)NC(=O)[C@H](CO)NC(=O)[C@H](C(C)C)NC(=O)[C@H](CC(N)=O)NC1=O` [SP31] (H-GRRRRRRRRRGGCSGFSTASGKKLNVSTQACQKAVKLFSG-OH; linker 13-31 via X1) was tested. Which “Binding affinity towards HumRadA22 by ITC (in words)” value (HumRadA22) did it give?
The value was “high affinity”.
